# pIC50: −log10 of the molar value. Several values for one entry are separate records, joined by “and”; a condition that tells them apart may be missing. Identical values can stand only once.
# Tested on: 299254-011-R-J1-PDC complex spheroid viability
# Test: Anticancer human tumor 299254-011-R-J1-PDC patient-derived melanoma cell line growth inhibition [POLQ]
# Details: for viability, T/C: stronger effect = lower value
# Experimental: Multicellular complex tumor spheroid response to Polymerase (POL) inhibitors (novobiocin, ART-558, RP6685) in combination with a variety of drugs and investigational agents in selected tumor cell lines
# The POL inhibitors (novobiocin, ART-558, and RP6685) were evaluated both individually and in combination with standard of care and investigational anticancer small molecules within a complex spheroid model of solid tumors. . Complex spheroids include a stromal component modeled by human endothelial cells (HUVEC) and fibroblasts modeled by human mesenchymal stem cells (MSCs). The concentration ranges selected for each drug and investigational agent were based upon clinically achievable concentrations if the clinical Cmax of the agent was known.
# Compounds. The drugs and investigational agents: novobiocin (NSC847541), ART-558 (NSC835418), RP-6685 (NSC848927), peposertib (NSC802822), ceralasertib (NSC780249), elimusertib (NSC800525), camonsertib (NSC841442), AZD-1390 (NSC803789), olaparib (NSC753686), talazoparib (NSC767125), rucaparib (NSC756644), sotorasib (NSC818433), MRTX-1133 (NSC836407), SN-38 (NSC673596), topotecan (NSC609699), epotoside (NSC141540), doxorubicin (NSC123127), gemcitabine (NSC613327), 5-fluorouracil (NSC19893), paclitaxel (NSC125973), vemurafenib (NSC761431), MSA-2 (NSC828583), SN-011 (NSC837082), adavosertib (NSC754352), prexasertib (NSC758257), carboplatin (NSC241240) and oxaliplatin (NSC266046), were obtained from the National Cancer Institute (NCI) Developmental Therapeutics Program Chemical Repository (21). The FDA-approved anticancer drug set is available from the Developmental Therapeutics Program at https://dtp.cancer.gov/organization/dscb/obtaining/. […] The stock solutions were prepared in dimethyl sulfoxide (DMSO, Sigma-Aldrich, St. Louis, MO, cat. D2650), except for the platinum compounds which were prepared in saline (Quality Biological, Gaithersburg, MD, cat. 114-055-101), at 800-fold the tested concentration and stored at -70 degrees C prior to their use. All drugs and investigational agents were tested over a range starting from a high concentration at or near the clinical Cmax and decreasing in half-log increments. If the clinical Cmax for an agent had not been determined, the highest concentration tested was 10 microM, except for SN-38, which was tested at a high concentration of 1 microM.
# Cell Culture. All cells were maintained in an incubator at 37 degrees C and 5% CO2 with 95% humidity. The PDC lines were cultured according to standard operating procedures established by the NCI PDMR (https://pdmr.cancer.gov). Table 3 of the manuscript, lists the cell lines along with the number of the three cell types plated to form the mct-spheroids and media for tumor cell growth. After thawing, all PDC lines, except 997537-175-T-J1-PDC and 415267-285-R-J2-PDC, were cultured in Matrigel-coated flasks prepared with a working solution of 1X Ham's F-12 nutrient mix, without supplementation (Thermo Fisher Scientific, cat. 11765054), 100 U/mL penicillin-streptomycin (Thermo Fisher Scientific, cat. 15140122), and 2.5% Matrigel (Corning Inc., Corning, NY, cat. 354248) for the first three passages. The two PDC lines 997537-175-T-J1-PDC and 415267-285-R-J2-PDC were cultured on uncoated flasks. The 857933-349-R-J2-PDC line was cultured in 6C/Colon 1B media containing advanced DMEM/F-12 (Thermo Fisher Scientific, cat. 12634028), 10 mM HEPES (Thermo Fisher Scientific, cat. 15630080), 1X GlutaMAX supplement (Thermo Fisher Scientific, cat. 35050061), 0.1 mg/mL primocin (InvivoGen, San Diego, CA, cat. ant-pm-2), 10% defined fetal bovine serum, heat inactivated (HyClone Laboratories Inc., Logan, UT, cat. SH30070.03HI), 50% L-WRN conditioned media (ATCC, cat. CRL-3276), 1.25 mM N-Acetyl-L-cysteine (Sigma-Aldrich, cat. A9165), 10 mM nicotinamide (Sigma-Aldrich, cat. N0636), 1X B-27 supplement (Thermo Fisher Scientific, cat. 17504044), 1X N-2 supplement (Thermo Fisher Scientific, cat. […]
# [1] = curve of first compound, second compound 0.0316 µM
# [2] = curve of first compound, second compound 0.1 µM
# [3] = curve of first compound, second compound 0.316 µM
# [4] = curve of first compound, second compound 1 µM
# [5] = curve of first compound, second compound 3.16 µM
# [6] = curve of first compound, second compound 10 µM
# [7] = second compound 0.0316 µM, first compound 0.0316 µM
# [8] = second compound 0.0316 µM, first compound 0.1 µM
# [9] = second compound 0.0316 µM, first compound 0.316 µM
# [10] = second compound 0.0316 µM, first compound 1 µM
# [11] = second compound 0.0316 µM, first compound 3.16 µM
# [12] = second compound 0.0316 µM, first compound 10 µM
# [13] = second compound 0.1 µM, first compound 0.0316 µM
# [14] = second compound 0.1 µM, first compound 0.1 µM
# [15] = second compound 0.1 µM, first compound 0.316 µM
# [16] = second compound 0.1 µM, first compound 1 µM
# [17] = second compound 0.1 µM, first compound 3.16 µM
# [18] = second compound 0.1 µM, first compound 10 µM
# [19] = second compound 0.316 µM, first compound 0.0316 µM
# [20] = second compound 0.316 µM, first compound 0.1 µM
# [21] = second compound 0.316 µM, first compound 0.316 µM
# [22] = second compound 0.316 µM, first compound 1 µM
# [23] = second compound 0.316 µM, first compound 3.16 µM
# [24] = second compound 0.316 µM, first compound 10 µM
# [25] = second compound 1 µM, first compound 0.0316 µM
# [26] = second compound 1 µM, first compound 0.1 µM
# [27] = second compound 1 µM, first compound 0.316 µM
# [28] = second compound 1 µM, first compound 1 µM
# [29] = second compound 1 µM, first compound 3.16 µM
# [30] = second compound 1 µM, first compound 10 µM
# [31] = second compound 3.16 µM, first compound 0.0316 µM
# [32] = second compound 3.16 µM, first compound 0.1 µM
# [33] = second compound 3.16 µM, first compound 0.316 µM
# [34] = second compound 3.16 µM, first compound 1 µM
# [35] = second compound 3.16 µM, first compound 3.16 µM
# [36] = second compound 3.16 µM, first compound 10 µM
# [37] = second compound 10 µM, first compound 0.0316 µM
# [38] = second compound 10 µM, first compound 0.1 µM
# [39] = second compound 10 µM, first compound 0.316 µM
# [40] = second compound 10 µM, first compound 1 µM
# [41] = second compound 10 µM, first compound 3.16 µM
# [42] = second compound 10 µM, first compound 10 µM
# 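Note: spheroids exposed to drugs for one week before measurement.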
# 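Throughout, for viability, T/C: percent viability relative to DMSO vehicle control taken as 100%.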
structure (smiles),measurement,setting,value
O=C(Nc1ccc(O)c(NS(=O)(=O)c2ccc(F)cc2)c1)c1ccc(-c2ccccc2)cc1 + COC1C(OC(N)=O)C(O)C(Oc2ccc3c(O)c(NC(=O)c4ccc(O)c(CC=C(C)C)c4)c(=O)oc3c2C)OC1(C)C,pIC50,[1],5.04
same,pIC50,[2],< 5.00
same,pIC50,[3],5.06
same,pIC50,[4],< 5.00
same,pIC50,[5],< 5.00
same,pIC50,[6],< 5.00
same,"viability, T/C",[7],105%
same,"viability, T/C",[8],96.9%
same,"viability, T/C",[9],94.2%
same,"viability, T/C",[10],109%
same,"viability, T/C",[11],112%
same,"viability, T/C",[12],45.3%
same,"viability, T/C",[13],95.6%
same,"viability, T/C",[14],114%
same,"viability, T/C",[15],105%
same,"viability, T/C",[16],94.6%
same,"viability, T/C",[17],86.3%
same,"viability, T/C",[18],57.1%
same,"viability, T/C",[19],127%
same,"viability, T/C",[20],101%
same,"viability, T/C",[21],104%
same,"viability, T/C",[22],95.7%
same,"viability, T/C",[23],97.7%
same,"viability, T/C",[24],42.6%
same,"viability, T/C",[25],110%
same,"viability, T/C",[26],104%
same,"viability, T/C",[27],108%
same,"viability, T/C",[28],118%
same,"viability, T/C",[29],93.3%
same,"viability, T/C",[30],54.7%
same,"viability, T/C",[31],109%
same,"viability, T/C",[32],114%
same,"viability, T/C",[33],109%
same,"viability, T/C",[34],94.6%
same,"viability, T/C",[35],99.4%
same,"viability, T/C",[36],55.9%
same,"viability, T/C",[37],96.2%
same,"viability, T/C",[38],127%
same,"viability, T/C",[39],106%
same,"viability, T/C",[40],103%
same,"viability, T/C",[41],96.5%
same,"viability, T/C",[42],58.4%
O=C(c1cc(Cc2n[nH]c(=O)c3ccccc23)ccc1F)N1CCN(C(=O)C2CC2)CC1 + COC1C(OC(N)=O)C(O)C(Oc2ccc3c(O)c(NC(=O)c4ccc(O)c(CC=C(C)C)c4)c(=O)oc3c2C)OC1(C)C,pIC50,[1],< 5.00
same,pIC50,[2],< 5.00
same,pIC50,[3],< 5.00
same,pIC50,[4],< 5.00
same,pIC50,[5],< 5.00
same,pIC50,[6],< 5.00
same,"viability, T/C",[7],129%
same,"viability, T/C",[8],114%
same,"viability, T/C",[9],114%
same,"viability, T/C",[10],122%
same,"viability, T/C",[11],116%
same,"viability, T/C",[12],101%
same,"viability, T/C",[13],107%
same,"viability, T/C",[14],113%
same,"viability, T/C",[15],117%
same,"viability, T/C",[16],129%
same,"viability, T/C",[17],131%
same,"viability, T/C",[18],93.6%
same,"viability, T/C",[19],116%
same,"viability, T/C",[20],110%
same,"viability, T/C",[21],119%
same,"viability, T/C",[22],135%
same,"viability, T/C",[23],106%
same,"viability, T/C",[24],99.5%
same,"viability, T/C",[25],128%
same,"viability, T/C",[26],122%
same,"viability, T/C",[27],121%
same,"viability, T/C",[28],127%
same,"viability, T/C",[29],134%
same,"viability, T/C",[30],98.2%
same,"viability, T/C",[31],144%
same,"viability, T/C",[32],114%
same,"viability, T/C",[33],109%
same,"viability, T/C",[34],121%
same,"viability, T/C",[35],117%
same,"viability, T/C",[36],98.9%
same,"viability, T/C",[37],128%
same,"viability, T/C",[38],119%
same,"viability, T/C",[39],120%
same,"viability, T/C",[40],128%
same,"viability, T/C",[41],108%
same,"viability, T/C",[42],95.2%
O=C(Nc1ccc(O)c(NS(=O)(=O)c2ccc(F)cc2)c1)c1ccc(-c2ccccc2)cc1,"viability, T/C",compound 0.0316 µM,93.4% and 116% (2×)
same,"viability, T/C",compound 0.1 µM,99.8% and 93% and 108%
same,"viability, T/C",compound 0.316 µM,110% and 99.2% and 96.8%
same,"viability, T/C",compound 1 µM,91.6% and 92.6% and 111%
same,"viability, T/C",compound 3.16 µM,111% and 88.9% and 86.7%
same,"viability, T/C",compound 10 µM,52% and 54.8% and 46.6%
same,pIC50,curve of compound,< 5.00 and 5.04
